Laboratory results reported in publication PMC8750417, “Intracellular Amplifiers of Reactive Oxygen Species Affecting Mitochondria as Radiosensitizers” (Cancers, 2021).

Tested on: human ovarian carcinoma, Burkitt’s lymphoma, pancreatic carcinoma and T-cell leukemia cells
Test: Anticancer activity, summary over four cancer cell lines
Format: cell-based
Conditions: read-out: IC50 values, range over cell lines
Method: Determination of viability of cells in the presence of prodrugs and controls A2780 and BL-2 cells The medium was removed, and the cells were washed two times with DPBS, trypsinated, and resuspended in RPMI 1640 medium (A2780) supplemented with 5% FBS (for 24 h and 48 h assay) or 10% FBS (for 96 h assay) , 1% L-glutamine, and 1% penicillin/streptomycin.
A2780 cells: This suspension was spread in the wells of a 96 -well microtiter plate (25000 cells for A2780 per well per 100 μL) and left standing at 37 °C in the chamber filled with CO2 (5%) for overnight. […] Afterward, the intensity of the absorbance at 590 nm was measured.
MTT is converted in live cells to blue dye with the absorbance maximum λ max at 590 nm.
The absorbance at 690 nm was taken as a baseline value. The baseline corrected absorbance at 590 nm (A(590 nm) − A(690 nm)) was applied to calculate the relative number of viable cells. […]
AsPC1 cells The cells (20.000/well) were seeded in a 12-well plate and incubated for 24 h. […] Viable cells were determined based on the morphological parameters by using flow cytometry (Table S4). […]
Jurkat cells The cells were counted in MUSE Cell Analyzer using MUSE® Count &Viability Assay Kit (Merck-Millipore, Billerica, MA, USA) and adjusted to a density of 1.0 x 10^5/ml in RPMI 1640 medium (with 10% FCS and 1% glutamine). […]

## CC1(C)OB(c2ccc(COC(=O)N(Cc3cn(Cc4ccc(Cn5cc(Cc6ccccc6)nn5)cc4)nn3)[c-]3cccc3)cc2)OC1(C)C.[Fe+2].c1cc[cH-]c1 [2c]
  IC50: 5 to 7.1 µM
